These results are taken from the PolyMetriX glass transition set.

With `*/C=C/*` (repeat unit), the glass transition temperature is -4.00 °C. To `*C(=O)OCCOC(=O)c1ccc(C(=O)OCCOC(=O)N2CCN(*)CC2)cc1` (repeat unit) belongs 53.00 °C; to `*C(=O)OCCOC(=O)c1cccc(N2C(=O)c3ccc(*)cc3C2=O)c1` (repeat unit), 220.00 °C. As to `*C(=O)OCCOCCOCCOCCOC(=O)c1ccc(N2C(=O)c3ccc(*)cc3C2=O)cc1` (repeat unit), the glass transition temperature was 52.00 °C. Turning to `*CCOC(=O)C1CCC(C(=O)O*)CC1` (repeat unit), the glass transition temperature was determined as 25.00 °C. `*CCOC(=O)C1CCC(C(=O)OCCOc2ccc(C3(c4ccc(O*)cc4)c4ccccc4-c4ccccc43)cc2)CC1` (repeat unit): the glass transition temperature is 120.1 °C. To `*CCOC(=O)c1ccc(-c2ccc(C(=O)O*)cc2)cc1` (repeat unit) belongs 40.00 °C; to `*CCOC(=O)c1cccc2c(C(=O)O*)cccc12` (repeat unit), 78.00 °C. For the compound `*CCOCCOC(=O)C(=O)O*` (repeat unit), the glass transition temperature was -28.00 °C.

`*CCOCCOC(=O)C1CCC(C(=O)O*)CC1` (repeat unit) yielded a glass transition temperature of -12.00 °C. The compound `*CCOCCOC(=O)c1ccc(C(=O)O*)cc1` (repeat unit) returned a glass transition temperature of 21.90 °C. Compound `*CCOCCOC(=O)c1ccc(N/C=N/c2ccc(C(=O)O*)cc2)cc1` (repeat unit) came in with a glass transition temperature of 77.00 °C. The compound `*CCOCCOC(=O)c1cccc(C(=O)O*)c1` (repeat unit) gave a glass transition temperature of 16.00 °C. With `*CCOCCOCCOc1ccc(/C=C/c2ccc(/C=C/c3ccc(O*)c4ccccc34)cc2)c2ccccc12` (repeat unit), the glass transition temperature stood at 83.50 °C. Take `*CCOc1ccc(S(=O)(=O)c2ccc(OCCOP(=O)(O*)Oc3ccc(OC)cc3)cc2)cc1` (repeat unit): the glass transition temperature worked out at 52.00 °C. To `*OC(=O)OCCOCCOC(=O)OC1COC2C(*)COC12` (repeat unit) belongs 46.50 °C; to `*OCCOC(=O)CCCC(=O)OCCOc1nc(-c2ccc(OCCCC)cc2)nc(*)c1-c1ccc(OCCCC)cc1` (repeat unit), 37.00 °C. Take `*O[Si](*)(C([2H])([2H])[2H])C([2H])([2H])[2H]` (repeat unit): the glass transition temperature was -125.00 °C.

On to `*O[Si](*)(C)CCC(F)(F)C(F)(F)C(F)(F)C(F)(F)F` (repeat unit), for which the glass transition temperature is -75.00 °C. `*O[Si](*)(C)CCCC(=O)O` (repeat unit) displayed a glass transition temperature of -29.00 °C. To `*O[Si](*)(C)CCCCC` (repeat unit) belongs -112.00 °C. Take `*O[Si](*)(C)CCCCC(=O)OCCCCCCCCCCC(F)(F)C(F)(F)C(F)(F)C(F)(F)C(F)(F)C(F)(F)C(F)(F)C(F)(F)F` (repeat unit): the glass transition temperature was -78.00 °C.

For the compound `*O[Si](*)(C)CCCCCC` (repeat unit), the glass transition temperature was -110.8 °C. `*O[Si](C)(C)O[Si](*)(C)CCCCCCCCOc1ccc(C(=O)Oc2ccc(C#N)cc2C)cc1` (repeat unit) registered a glass transition temperature of -15.00 °C. In the case of `*O[Si](C)(C)O[Si](C)(C)O[Si](*)(C)c1c(F)c(F)c(F)c(F)c1F` (repeat unit), the glass transition temperature was -83.00 °C. The compound `*O[Si](C)(C)O[Si](C)(C)O[Si](C)(C)O[Si](C)(C)c1ccc(Oc2ccc([Si](*)(C)C)cc2)cc1` (repeat unit) gave a glass transition temperature of -52.00 °C. Compound `*O[Si](C)(C)O[Si](C)(C)O[Si](C)(C)O[Si](C)(C)c1cccc([Si](*)(C)C)c1` (repeat unit) registered a glass transition temperature of -75.00 °C. Take `*O[Si](C)(C)[Si](*)(C)C` (repeat unit): the glass transition temperature was -119.00 °C.

The compound `*O[Si](C)(C)c1ccc([Si](*)(C)C)cc1` (repeat unit) returned a glass transition temperature of -18.00 °C. `*O[Si](C)(C)c1ccc([Si](C)(C)O[SiH](*)C)cc1` (repeat unit): the glass transition temperature was -65.00 °C. For `*O[Si](C)(C)c1ccc2ccc([Si](*)(C)C)cc2c1` (repeat unit), the glass transition temperature was determined as 26.00 °C. `*O[Si](C)(C)c1cccc(C(F)(F)C(F)(F)c2cccc([Si](*)(C)C)c2)c1` (repeat unit): the glass transition temperature was -2.00 °C. `*O[Si](C)(C)c1cccc2c([Si](*)(C)C)cccc12` (repeat unit) had a glass transition temperature of 62.00 °C. `*O[Si](C)(C)c1cccc2c1ccc1c([Si](*)(C)C)cccc12` (repeat unit) returned a glass transition temperature of 100.00 °C. Turning to `*O[Si](C)(C=C)O[Si](C)(C)c1ccc([Si](*)(C)C)cc1` (repeat unit), the glass transition temperature is -63.00 °C. Take `*O[Si](C)(C=C)O[Si](C)(C=C)O[Si](C)(C)c1ccc([Si](*)(C)C)cc1` (repeat unit): the glass transition temperature was -86.00 °C.

In turn, `*O[Si](C)(CCC(F)(F)C(F)(F)C(F)(F)C(F)(F)C(F)(F)C(F)(F)F)O[Si](C)(C)c1ccc([Si](*)(C)C)cc1` (repeat unit) displayed a glass transition temperature of -55.00 °C.

In turn, `*O[Si](C=C)(C=C)O[Si](C)(C)c1ccc([Si](*)(C)C)cc1` (repeat unit) displayed a glass transition temperature of -71.00 °C.

`*Oc1ccc(C(=O)OCCOC(=O)c2ccc(*)cc2)cc1` (repeat unit) came in with a glass transition temperature of 74.00 °C.

In turn, `*Oc1ccc(C(=O)OCCOCCOCCOCCOC(=O)c2ccc(OC(=O)c3ccc(C(*)=O)cc3)cc2)cc1` (repeat unit) displayed a glass transition temperature of 30.00 °C. With `*Oc1ccc(C(=O)c2ccc(Oc3ccc(C(=O)c4ccc(Oc5ccc(Cc6ccc(*)cc6)cc5)cc4)cc3)cc2)cc1` (repeat unit), the glass transition temperature amounted to 128.00 °C. Take `*Oc1ccc(C(=O)c2ccc(Oc3ccc(C(=O)c4cccc(C(=O)c5ccc(*)cc5)c4)cc3)cc2)cc1` (repeat unit): the glass transition temperature stood at 152.00 °C. To `*c1ccc(-c2ccc(-n3c(-c4ccc(Oc5ccc(C(=O)c6ccc(Oc7ccc(-c8nc9ccccc9n8*)cc7)cc6)cc5)cc4)nc4ccccc43)cc2)cc1` (repeat unit) belongs 268.00 °C; to `*c1ccc(Oc2ccc(C(=O)c3ccc(Oc4ccc(-c5nnc(*)c6c(-c7ccccc7)c(-c7ccc8ccccc8c7)c(-c7ccc8ccccc8c7)c(-c7ccccc7)c56)cc4)cc3)cc2)cc1` (repeat unit), 312.00 °C.

For the compound `*c1ccc(Oc2ccc(C(=O)c3ccc(Oc4ccc(C(=O)c5ccc(Oc6ccc(-c7nc8ccccc8n7-c7ccc(-n8c(*)nc9ccccc98)cc7)cc6)cc5)cc4)cc3)cc2)cc1` (repeat unit), the glass transition temperature is 223.00 °C. With `*c1ccc(Oc2cccc(N3C(=O)c4ccc([Si](C)(C)O[Si](C)(C)c5ccc6c(c5)C(=O)N(c5cccc(Oc7ccc(-c8nnc(*)o8)cc7)c5)C6=O)cc4C3=O)c2)cc1` (repeat unit) the figure was 165.00 °C; with `*c1cccc(Cc2cccc(N3C(=O)c4ccc([Si](C)(C)O[Si](C)(C)c5ccc6c(c5)C(=O)N(*)C6=O)cc4C3=O)c2)c1` (repeat unit), 217.00 °C.
